We go through 2 compounds from patent US20240208945A1, “6-CARBAMATE SUBSTITUTED HETEROARYL RING DERIVATIVES” (MEDSHINE DISCOVERY INC., priority 2021, published 2024).

The test system of data set [1] is Human pancreatic cancer cells (Miapaca2). Nature of the data set: In vivo drug efficacy in the Miapaca2 nude mouse xenograft tumor model. Particulars: Miapaca-2 xenograft, AMG-510 5 mg/kg once a day, compound 14 hydrochloride 50 mg/kg twice a day, intragastric. More on the design: species or system Balb/c nude mice. As to the method: Human pancreatic cancer cells (Miapaca2) were cultured in vitro as a monolayer on an adherent surface, and the culture conditions were DMEM medium plus 10% fetal bovine serum, cultured in a 37° C., 5% CO2 incubator. The cells were treated with trypsin-EDTA for routine digestion and passaged two to three times a week. When the cell saturation was 80% to 90% and the number reached the requirements, the cells were collected, counted, and inoculated.
Balb/c nude mice, female, 6 to 7 weeks old, were purchased from Shanghai SIPPR-BK Lab Animal Co., Ltd.
0.2 mL (5×10^6) Miapaca-2 cells (plus Matrigel, volume ratio of 1:1) were subcutaneously inoculated on the right back of each mouse, and the administration in groups began when the average tumor volume reached 118 mm^3.
The tumor diameter was measured twice a week with a vernier caliper, and the tumor volume was measured in cubic millimeters, calculated by the following formula: V=0.5a×b^2, wherein a and b are the long and short diameters of the tumor, respectively. The tumor inhibitory efficacy of the test compound was evaluated by using TGI (%). TGI (%) reflects the rate of tumor growth inhibition. […]

The nature of data set [2]: Pharmacokinetic evaluation in CD-1 mice (IV and oral). It counts as in vivo. Particulars: mouse, plasma. The method, then: CD-1 mice (male, 7 to 9 weeks old, Shanghai SLAC)
The pharmacokinetic characteristics of the compound in rodents after intravenous injection and oral administration were tested according to the standard protocol. In the experiment, the candidate compound was formulated into clear solutions, and a single intravenous injection and oral administration were given to mice. The vehicle for intravenous injection and oral administration was a mixed vehicle composed of 10% dimethyl sulfoxide and 90% hydroxypropyl β-cyclodextrin with a content of 10%. In this project, four female CD-1 mice were used, and two mice were administered intravenously at a dose of 1 mg/kg. Plasma samples were collected at 0.033, 0.083, 0.25, 0.5, 1, 2, 4, 8, and 12 hours after administration. The other two mice were administered orally by gavage at a dose of 2 mg/kg. Plasma samples were collected at 0.083, 0.25, 0.5, 1, 2, 4, 8, and 12 hours after administration, […] at 4° C. for 10 minutes at 3,200×g, and the supernatants were separated from the plasma samples. The protein was precipitated by adding 20 times the volume of methanol solution containing internal standard, […] at 12000×g for 15 minutes, centrifuged at 4° C. 50 μL of the supernatant was transferred to a 96-well plate and centrifuged for a second time to take the supernatant for injection. The plasma concentration was quantitatively analyzed by LC-MS/MS analysis method, and the pharmacokinetic parameters were calculated, such as peak concentration (Cmax), clearance rate (CL), half-life (T1/2), volume of distribution at steady state (Vdss), area under drug-time curve (AUC0-last), bioavailability (F).

A further data set relates to p-ERK in DLD-1 cells. Nature of the data set: p-ERK inhibitory activity test in DLD-1 cells (HTRF Phospho-ERK1/2 kit). Particulars: Homo sapiens, 1 hour incubation. It counts as cell-based. As to the method:
DLD-1 cells were purchased from Nanjing Cobioer; 1640 medium was purchased from Biological Industries; fetal bovine serum was purchased from Biosera; Advanced Phospho-ERK1/2 (THR202/TYR204) KIT was purchased from Cisbio.
DLD-1 cells were seeded in a transparent 96-well cell culture plate, with 80 μL of cell suspension per well and 8000 DLD-1 cells per well. The cell plate was incubated in a carbon dioxide incubator at 37° C. overnight; • the test compound was diluted to 2 mM with 100% DMSO as the first concentration, and then 5-fold diluted to the 8th concentration with a pipette, that is, diluted from 2 mM to 0.026 μM. 2 μL of compound was added to 78 μL of cell starvation medium. After mixing well, 20 μL of compound solution was taken and added to the corresponding cell plate wells, and the cell plate was put back to the carbon dioxide incubator to continue to incubate for 1 hour; at this time, the concentration of the compound was from 10 μM to 0.128 nM, and the concentration of DMSO was 0.5%; • after the incubation was completed, the cell supernatant was discarded, and 50 μL of cell lysate was added to each well, and incubated at room temperature for 30 minutes with shaking; • Phospho-ERK1/2 Eu Cryptate antibody and Phospho-ERK1/2 d2 antibody were 20-fold diluted using Detection buffer; • 16 μL of cell lysate supernatant per well was put into a new 384 white microplate, then 2 μL of Phospho-ERK1/2 Eu Cryptate antibody diluent and 2 μL of Phospho-ERK1/2 d2 antibody diluent were added thereto and incubated at room temperature for 4 hours; • after the incubation was completed, a multimode microplate reader was used to read HTRF excitation: 320 nm, emission: 615 nm, 665 nm.
Using the equation (Sample−Min)/(Max−Min)*100% to convert the raw data into inhibition rate, the IC50 value might be obtained by curve fitting with four parameters (obtained by “log (inhibitor) vs. response—Variable slope” mode in GraphPad Prism). • Max well: Positive control well reading is 1× lysate • Min well: Negative control well reading is 0.5% DMSO cell well cell lysate

For data set [3], the target named is binding of KRAS(G12C) to SOS1 (Homo sapiens (Human), UniProt Q07889). The experiment in a line: KRAS(G12C) and SOS1 binding assay (HTRF). Particulars: 25° C., 60 minutes. From the text:
The small molecular compound binds to the catalytic site of SOS1, thus inhibiting the binding of SOS1 to KRAS (G12C). When the binding of fluorescently labeled SOS1 protein to fluorescently labeled KRAS (G12C) protein is inhibited, the emitted fluorescence changes. The ability of small molecules to prevent the binding of SOS1 to KRAS (G12C) can be tested by detecting changes in fluorescence. A homogeneous time-resolved fluorescence (HTRF) binding assay was used to detect the ability of the compounds of the present disclosure to inhibit the binding of SOS1 to KRAS (G12C).
KRAS (G12C) protein was expressed and purified by Wuhan AtaGenix Biotechnology Co., Ltd., SOS1 exchange domin (564-1049) protein (Human recombinant) was purchased from Cytoskeleton, Mab Anti 6HIS-XL665 and Mab Anti GST-Eu cryptate were purchased from Cisbio. Multimode microplate reader Nivo5 was purchased from PerkinElmer.
1× buffer preparation (ready-to-use): Hepes: 5 mM; NaCl: 150 mM; EDTA: 10 mM; Igepal: 0.0025%; KF: 100 mM; DTT: 1 mM; BSA: […];
The test compounds were 5-fold diluted with DMSO using a multi-channel pipette to the 8th concentration, i.e., diluted from 1 mM to 0.064 μM.
The test compound was diluted by gradient with 1× buffer to a working solution with 2% DMSO. 5 μL/well of the working solution was added to corresponding wells, and the corresponding concentration gradient was 20 μM to […]. Duplicate experiment was set. The working solution was centrifuged at 1000 rpm for 1 minute.
A mixed working solution of KRAS(G12C) (200 nM) and Mab Anti GST-Eu cryptate (1 ng/μL) was prepared with 1× buffer, and the mixed working solution was incubated at 25° C. for 5 minutes, and 2.5 μL/well of the mixed working solution was added to the corresponding wells.
A mixed working solution of SOS1 (80 nM) and Mab Anti 6HIS-XL665 ([…]) was prepared with 1× buffer, and 2.5 μL/well of the mixed working solution was added to the corresponding wells. 2.5 μL of Mab Anti 6HIS-XL665 ([…]) diluent was added to blank wells. At this time, the final concentration gradient of the compound was diluted from 10 μM to 0.64 nM, KRAS(G12C) ([…]), MAb Anti GST-Eu cryptate (0.25 ng/μL), SOS1 (20 nM), Mab Anti 6HIS-XL665 (2 g/μL), the reaction system was placed at 25° C. for 60 minutes. After the reaction was completed, the multimode microplate reader was used to read HTRF.
Using the equation (Sample−Min)/(Max−Min)×100% to convert the raw data into inhibition rate, the IC50 value might be obtained by curve fitting with four parameters (obtained by “log (inhibitor) vs. response—Variable slope” mode in GraphPad Prism).

Structures can show the parent of a compound that is named as a salt.

binding of KRAS(G12C) to SOS1, sequence (Q07889 564-1049, stated change not applied): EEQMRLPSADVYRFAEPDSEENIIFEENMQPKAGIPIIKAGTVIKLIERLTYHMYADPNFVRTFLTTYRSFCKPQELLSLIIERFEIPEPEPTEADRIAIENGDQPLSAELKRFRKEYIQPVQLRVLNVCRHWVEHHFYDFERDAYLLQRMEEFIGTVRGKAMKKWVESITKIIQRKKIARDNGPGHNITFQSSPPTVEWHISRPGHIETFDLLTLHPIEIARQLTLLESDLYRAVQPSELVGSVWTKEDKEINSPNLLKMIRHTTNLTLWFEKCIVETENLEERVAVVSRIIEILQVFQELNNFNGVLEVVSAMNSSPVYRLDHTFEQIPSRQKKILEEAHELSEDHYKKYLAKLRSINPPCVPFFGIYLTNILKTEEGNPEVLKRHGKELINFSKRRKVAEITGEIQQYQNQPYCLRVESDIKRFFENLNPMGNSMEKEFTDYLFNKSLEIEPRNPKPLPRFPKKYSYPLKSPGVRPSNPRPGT

For `C=CC(=O)N1CCN(c2nc(=O)n(-c3c(C)ccnc3C(C)C)c3nc(-c4c(O)cccc4F)c(F)cc23)[C@@H](C)C1` (atropisomer, axis not shown) [AMG-510], the “Mean tumor volume ± SEM (day 22)” value in data set [1] is 819 ± 407 mm^3. The compound also came in with a TGI in data set [1] (day 22) of 59.4%.

For the compound `COc1cc2nc(C)nc(N[C@H](C)c3cccc(C(F)(F)C(C)(C)O)c3F)c2cc1OC(=O)N1CCN(C)CC1C` (stereo partly shown) [Hydrochloride of compound 14], the Cmax in data set [2] (IV 1 mg/kg and oral 2 mg/kg study, read-out: Peak concentration Cmax) was 92.3 nM. For the same compound, in data set [2] (IV 1 mg/kg, PO 2 mg/kg, read-out: Bioavailability F), the bioavailability turned out to be 33.9%. The clearance in data set [2] (IV 1 mg/kg, read-out: Clearance rate CL) is 29.2 mL/min/kg. For the same compound, the half-life in data set [2] (IV 1 mg/kg, read-out: Half life T1/2 (IV) (converted)) was 2.96 h. In addition, the Vd in data set [2] (IV 1 mg/kg, read-out: Volume of distribution at steady state Vdss) was 4.95 L/kg. For the same compound, the AUC(0-t) in data set [2] (PO 2 mg/kg, read-out: Area under drug-time curve AUC0-last PO) came out at 0.606 µM·h. Besides, the IC50 in the data set with p-ERK in DLD-1 cells worked out at 78.9 nM; in data set [3], 40.4 nM.
